According to PubChem BioAssay AID1963969 (Molecular Pharmacology Branch, DTP, NCI, 2024):

Tested on: 817829-284-R-J1-PDC multi-cell spheroid viability
Test: Anticancer human tumor 817829-284-R-J1-PDC patient-derived colon adenocarcinoma cell line growth inhibition [PI3K]
Details: for IC50: curve of first compound; for viability, T/C: stronger effect = lower value
In short: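 Spheroid viability read-out. Co-cultures contained the tumor line plus HUVEC and human MSCs. Each agent was paired with a PI3K inhibitor (inavolisib, alpelisib, duvelisib, copanlisib) across half-log dilutions starting at clinical Cmax, or at 10 microM when Cmax was unknown.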

[1] = second compound 0.0316 µM, first compound 0.0316 µM
[2] = second compound 0.0316 µM, first compound 0.1 µM
[3] = second compound 0.1 µM, first compound 0.0316 µM
[4] = second compound 0.1 µM, first compound 0.1 µM
[5] = second compound 0.316 µM, first compound 0.0316 µM
[6] = second compound 0.316 µM, first compound 0.1 µM
[7] = second compound 1 µM, first compound 0.0316 µM
[8] = second compound 1 µM, first compound 0.1 µM
[9] = second compound 3.16 µM, first compound 0.0316 µM
[10] = second compound 3.16 µM, first compound 0.1 µM
[11] = second compound 10 µM, first compound 0.0316 µM
[12] = second compound 10 µM, first compound 0.1 µM
[13] = second compound 0.0316 µM, first compound 0.316 µM
[14] = second compound 0.0316 µM, first compound 1 µM
[15] = second compound 0.0316 µM, first compound 3.16 µM
[16] = second compound 0.0316 µM, first compound 10 µM
[17] = second compound 0.1 µM, first compound 0.316 µM
[18] = second compound 0.1 µM, first compound 1 µM
[19] = second compound 0.1 µM, first compound 3.16 µM
[20] = second compound 0.1 µM, first compound 10 µM
[21] = second compound 0.316 µM, first compound 0.316 µM
[22] = second compound 0.316 µM, first compound 1 µM
[23] = second compound 0.316 µM, first compound 3.16 µM
[24] = second compound 0.316 µM, first compound 10 µM
[25] = second compound 1 µM, first compound 0.316 µM
[26] = second compound 1 µM, first compound 1 µM
[27] = second compound 1 µM, first compound 3.16 µM
[28] = second compound 1 µM, first compound 10 µM
[29] = second compound 3.16 µM, first compound 0.316 µM
[30] = second compound 3.16 µM, first compound 1 µM
[31] = second compound 3.16 µM, first compound 3.16 µM
[32] = second compound 3.16 µM, first compound 10 µM
[33] = second compound 10 µM, first compound 0.316 µM
[34] = second compound 10 µM, first compound 1 µM
[35] = second compound 10 µM, first compound 3.16 µM
[36] = second compound 10 µM, first compound 10 µM
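Also: spheroids exposed to agents for seven days before readout.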
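For viability, T/C in this document: percent of vehicle DMSO control viability which is 100%.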

CC(C)n1nc(-c2ccc3oc(N)nc3c2)c2c(N)ncnc21 + CC(Nc1ncnc2nc[nH]c12)c1cc2cccc(Cl)c2c(=O)n1-c1ccccc1
IC50 (second compound 0.0316 µM): 0.0197 µM | IC50 (second compound 0.1 µM): 0.0339 µM | IC50 (second compound 0.316 µM): 0.0158 µM | IC50 (second compound 1 µM): 0.0195 µM | IC50 (second compound 3.16 µM): 0.00943 µM | IC50 (second compound 10 µM): 0.0109 µM | viability, T/C (second compound 0.0316 µM, first compound 0.000316 µM): 74.9% | viability, T/C (second compound 0.0316 µM, first compound 0.001 µM): 107% | viability, T/C (second compound 0.0316 µM, first compound 0.00316 µM): 57.3% | viability, T/C (second compound 0.0316 µM, first compound 0.01 µM): 62.7% | viability, T/C [1]: 44.8% | viability, T/C [2]: 18.1% | viability, T/C (second compound 0.1 µM, first compound 0.000316 µM): 100% | viability, T/C (second compound 0.1 µM, first compound 0.001 µM): 121% | viability, T/C (second compound 0.1 µM, first compound 0.00316 µM): 64% | viability, T/C (second compound 0.1 µM, first compound 0.01 µM): 80% | viability, T/C [3]: 56.7% | viability, T/C [4]: 18.7% | viability, T/C (second compound 0.316 µM, first compound 0.000316 µM): 135% | viability, T/C (second compound 0.316 µM, first compound 0.001 µM): 77.2% | viability, T/C (second compound 0.316 µM, first compound 0.00316 µM): 94.2% | viability, T/C (second compound 0.316 µM, first compound 0.01 µM): 59.9% | viability, T/C [5]: 31.3% | viability, T/C [6]: 27.5% | viability, T/C (second compound 1 µM, first compound 0.000316 µM): 89.4% | viability, T/C (second compound 1 µM, first compound 0.001 µM): 124% | viability, T/C (second compound 1 µM, first compound 0.00316 µM): 74.4% | viability, T/C (second compound 1 µM, first compound 0.01 µM): 66.3% | viability, T/C [7]: 41.9% | viability, T/C [8]: 18.9% | viability, T/C (second compound 3.16 µM, first compound 0.000316 µM): 106% | viability, T/C (second compound 3.16 µM, first compound 0.001 µM): 86.4% | viability, T/C (second compound 3.16 µM, first compound 0.00316 µM): 96% | viability, T/C (second compound 3.16 µM, first compound 0.01 µM): 47.4% | viability, T/C [9]: 44.2% | viability, T/C [10]: 23.8% | viability, T/C (second compound 10 µM, first compound 0.000316 µM): 80% | viability, T/C (second compound 10 µM, first compound 0.001 µM): 68.5% | viability, T/C (second compound 10 µM, first compound 0.00316 µM): 106% | viability, T/C (second compound 10 µM, first compound 0.01 µM): 52.1% | viability, T/C [11]: 30.3% | viability, T/C [12]: 17.8%

CC(Cn1ccc(-c2ccc(C#N)c(Cl)c2)n1)NC(=O)c1cc(C(C)O)[nH]n1 (stereo unspecified) + CC(Nc1ncnc2nc[nH]c12)c1cc2cccc(Cl)c2c(=O)n1-c1ccccc1
IC50 (second compound 0.0316 µM): > 10 µM | IC50 (second compound 0.1 µM): 8.49 µM | IC50 (second compound 0.316 µM): > 10 µM | IC50 (second compound 1 µM): > 10 µM | IC50 (second compound 3.16 µM): > 10 µM | IC50 (second compound 10 µM): > 10 µM | viability, T/C [1]: 71.5% | viability, T/C [2]: 78.8% | viability, T/C [13]: 98.5% | viability, T/C [14]: 64.6% | viability, T/C [15]: 75.5% | viability, T/C [16]: 75.1% | viability, T/C [3]: 106% | viability, T/C [4]: 82.7% | viability, T/C [17]: 95.7% | viability, T/C [18]: 83.2% | viability, T/C [19]: 87.7% | viability, T/C [20]: 43.4% | viability, T/C [5]: 109% | viability, T/C [6]: 82.7% | viability, T/C [21]: 105% | viability, T/C [22]: 66.6% | viability, T/C [23]: 99.8% | viability, T/C [24]: 66.3% | viability, T/C [7]: 83.9% | viability, T/C [8]: 78.8% | viability, T/C [25]: 100% | viability, T/C [26]: 74.5% | viability, T/C [27]: 91.3% | viability, T/C [28]: 102% | viability, T/C [9]: 90.9% | viability, T/C [10]: 53.7% | viability, T/C [29]: 79.1% | viability, T/C [30]: 90.4% | viability, T/C [31]: 47.5% | viability, T/C [32]: 71.4% | viability, T/C [11]: 67.6% | viability, T/C [12]: 48.2% | viability, T/C [33]: 71.3% | viability, T/C [34]: 51% | viability, T/C [35]: 67.5% | viability, T/C [36]: 40.1%

CCCS(=O)(=O)Nc1ccc(F)c(C(=O)c2c[nH]c3ncc(-c4ccc(Cl)cc4)cc23)c1F + CC(Nc1ncnc2nc[nH]c12)c1cc2cccc(Cl)c2c(=O)n1-c1ccccc1
IC50 (second compound 0.0316 µM): 4.76 µM | IC50 (second compound 0.1 µM): 4.21 µM | IC50 (second compound 0.316 µM): 3.33 µM | IC50 (second compound 1 µM): 4.31 µM | IC50 (second compound 3.16 µM): 1.35 µM | IC50 (second compound 10 µM): 1.79 µM | viability, T/C [1]: 110% | viability, T/C [2]: 61.7% | viability, T/C [13]: 62.3% | viability, T/C [14]: 52% | viability, T/C [15]: 90.5% | viability, T/C [16]: 4.04% | viability, T/C [3]: 78% | viability, T/C [4]: 72.6% | viability, T/C [17]: 72.7% | viability, T/C [18]: 89% | viability, T/C [19]: 63.9% | viability, T/C [20]: 7.99% | viability, T/C [5]: 98.2% | viability, T/C [6]: 70% | viability, T/C [21]: 101% | viability, T/C [22]: 60.6% | viability, T/C [23]: 57.8% | viability, T/C [24]: 4.81% | viability, T/C [7]: 66.9% | viability, T/C [8]: 70.5% | viability, T/C [25]: 87% | viability, T/C [26]: 38.3% | viability, T/C [27]: 68.3% | viability, T/C [28]: 6.14% | viability, T/C [9]: 114% | viability, T/C [10]: 89% | viability, T/C [29]: 68.6% | viability, T/C [30]: 59% | viability, T/C [31]: 47.2% | viability, T/C [32]: 8.3% | viability, T/C [11]: 72.4% | viability, T/C [12]: 75.2% | viability, T/C [33]: 68.9% | viability, T/C [34]: 49.8% | viability, T/C [35]: 47.7% | viability, T/C [36]: 9.39%
